Results: patent US6420172B1, “Method for inducing tumor immunity” (TIB Company, LLC, priority 1992, dated 2002)

Assays:
transfected C6 cells = experiment: 3H-thymidine incorporation into transfected C6 cells in serum-free medium; assay type: cell-based, rat; conditions: 48 hours, 50 μg/ml
From the text: The mechanism underlying the loss of tumorigenicity for the antisense IGF-1 transfectants is linked to enhanced immunogenicity. Applicant notes a striking infiltration of mononuclear cells surrounding the injected C6 transfected cells in vivo. No such infiltrates ere apparent for the parental (IGF-I positive) cells in he tumors formed in vivo. […] This possibility is substantiated by the examples provided below. This immunological component may exist together with an antiproliferative effect. C6 cellular proliferation is likely to involve factors in addition to IGF-1, however, since the rate of incorporation of ^3H-thymidine into transfected C6 cells cultured for 48 hours in serum-free medium was unaffected by the presence of ZnSO^4 or IGF-I protein (50 μg/ml) in the culture medium (data not shown).

tumor cells = conditions: literature reports; cited from earlier work

## IGF-I protein: Insulin-like growth factor I protein added to the culture medium
Transfected C6 cells
  rate of incorporation of 3H-thymidine in the presence of IGF-I protein: unaffected

## C[C@@H](O)[C@@H]1NC(=O)[C@H](CCCCN)NC(=O)[C@@H](Cc2c[nH]c3ccccc23)NC(=O)[C@H](Cc2ccccc2)NC(=O)[C@@H](NC(=O)[C@H](N)Cc2ccccc2)CSSC[C@@H](C(=O)N[C@H](CO)[C@@H](C)O)NC1=O [octreotide]
Tumor cells
  tumor development in vivo: not blocked
